Test results: ChEMBL document CHEMBL5096210, “Discovery of Betulinic Acid Derivatives as Potent Intestinal Farnesoid X Receptor Antagonists to Ameliorate Nonalcoholic Steatohepatitis” (J Med Chem, 2022)
Calls of active or inactive are those of the source. The rule behind the calls is not given here.

Columns and labels:
Mus musculus [1] = species: Mus musculus; assay: Anti-NASH activity in GAN diet-induced […] mouse assessed as reduction in Fabp2 mRNA expression level; format: functional, organism-based
Mus musculus [2] = species: Mus musculus; assay: Anti-NASH activity in GAN diet-induced […] mouse assessed as reduction in A-sma mRNA expression; format: functional, organism-based
Liver [3] = assay: Anti-NASH activity in GAN diet-induced […] mouse liver assessed as reduction in macrosteatosis by Sirius red staining based analysis; format: functional
Mus musculus [4] = assay: Anti-NASH activity in GAN-induced […] mouse assessed as reduction in random blood glucose level at 10 mg/kg measured upto 120 mins; format: functional, organism-based
Liver [5] = assay: Anti-NASH activity in GAN diet-induced […] mouse liver assessed as reduction in hepatocyte fat by H and E staining based analysis; format: functional, cell-based
[6] = Cytotoxicity against HEK293T cells cotransfected with pCMV-Script-hFXR/pGL4.11-hSHP-Luciferase incubated for 24 hrs in presence of GW4064 by celltiter-blue cell viability assay; format: toxicity, cell-based, HEK-293T; details: human
Mus musculus [7] = species: Mus musculus; assay: Anti-NASH activity in GAN diet-induced […] mouse assessed as reduction in bile acid loss in cecum content; format: functional, organism-based
Mus musculus [8] = assay: Anti-NASH activity in HFMCD diet-induced […] mouse assessed as reduction in hepatic hydroxyproline level at 30 mg/kg, po for 4 weeks; format: functional, organism-based
Mus musculus [9] = species: Mus musculus; assay: Anti-NASH activity in GAN diet-induced […] mouse assessed as increase in hepatic bile acid synthesis; format: functional, organism-based
[10] = biological target: T1, Bile acid receptor (Mus musculus) (UniProt Q60641); assay: In vivo antagonist activity against FXR in mouse assessed as reduction in Fgf15 level in presence of GW4064; format: functional
T1 sequence (whole entry): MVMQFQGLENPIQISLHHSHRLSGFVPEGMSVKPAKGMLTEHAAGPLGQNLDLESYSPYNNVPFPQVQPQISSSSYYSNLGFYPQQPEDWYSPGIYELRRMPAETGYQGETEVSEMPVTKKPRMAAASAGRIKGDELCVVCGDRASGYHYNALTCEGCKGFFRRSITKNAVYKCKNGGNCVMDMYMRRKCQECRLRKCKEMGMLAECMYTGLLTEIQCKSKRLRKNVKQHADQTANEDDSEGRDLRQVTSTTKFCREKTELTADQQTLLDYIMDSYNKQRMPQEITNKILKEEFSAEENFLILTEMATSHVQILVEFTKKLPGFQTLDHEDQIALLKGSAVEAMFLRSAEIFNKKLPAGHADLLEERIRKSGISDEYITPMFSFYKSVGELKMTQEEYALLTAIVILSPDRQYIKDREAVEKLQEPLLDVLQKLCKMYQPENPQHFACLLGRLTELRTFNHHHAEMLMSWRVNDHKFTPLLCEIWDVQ

Mus musculus [11] = assay: Anti-NASH activity in GAN-induced […] mouse assessed as reduction in body weight at 10 mg/kg, IG measured after 12 weeks; format: functional, organism-based
[12] = Drug metabolism in C57BL6 mouse serum assessed as ((1S,3aS,5aR,5bR,7aR,9R,11aR,11bR,13aR,13bR)-9-hydroxy-1-isopropyl-5a,5b,8,8,11a-pentamethylicosahydro-1H-cyclopenta[a]chrysene-3a-carbonyl)glycine formation at 10 mg/kg, po administered as single dose measured after 2 hrs; format: ADME, organism-based; details: in vivo
[13] = biological target: T1, Bile acid receptor (Mus musculus); assay: In vivo antagonist activity against FXR in mouse assessed as reduction in Fxr level in presence of GW4064; format: functional
[14] = Drug distribution in C57BL6 mouse intestine at 10 mg/kg, po administered as single dose measured after 8 hrs; format: ADME, organism-based; details: in vivo
Mus musculus [15] = species: Mus musculus; assay: Anti-NASH activity in GAN diet-induced […] mouse assessed as increase in Bsep mRNA level; format: functional, organism-based
[16] = biological target: T1, Bile acid receptor (Mus musculus); assay: In vivo antagonist activity against FXR in mouse assessed as reduction in Fxr level in presence of CDCA; format: functional
Mus musculus [17] = species: Mus musculus; assay: Anti-NASH activity in GAN diet-induced […] mouse assessed as upregulation of Cyp7a1 mRNA expression in liver; format: functional, organism-based
Mus musculus [18] = assay: Anti-NASH activity in GAN-induced mouse assessed as increase in insulin sensitivity at 10 mg/kg; format: functional, organism-based
Mus musculus [19] = assay: Anti-NASH activity in GAN-induced […] mouse assessed as upregulation of […] expression in inguinal white adipose tissue at 10 mg/kg; format: functional, organism-based
Mus musculus [20] = species: Mus musculus; assay: Anti-NASH activity in GAN diet-induced […] mouse assessed as reduction in liver index; format: functional, organism-based
Mus musculus [21] = assay: Anti-NASH activity in HFMCD diet-induced […] mouse assessed as reduction in AST serum level at 30 mg/kg, po for 4 weeks; format: functional, organism-based
Mus musculus [22] = species: Mus musculus; assay: Anti-NASH activity in GAN diet-induced […] mouse assessed as suppression of Shp expression; format: functional, organism-based
Mus musculus [23] = assay: Anti-NASH activity in GAN-induced […] mouse assessed as upregulation of Ucp1 expression in inguinal white adipose tissue at 10 mg/kg; format: functional, organism-based
Mus musculus [24] = species: Mus musculus; assay: Anti-NASH activity in GAN diet-induced […] mouse assessed as reduction in AST level; format: functional, organism-based
Mus musculus [25] = assay: Anti-NASH activity in GAN-induced […] mouse assessed as reduction in fat/lean index at 10 mg/kg, IG measured after 12 weeks; format: functional, organism-based
[26] = biological target: T1, Bile acid receptor (Mus musculus); assay: In vivo antagonist activity against FXR in mouse assessed as reduction in Shp level in presence of GW4064; format: functional
Liver [27] = assay: Anti-NASH activity in GAN diet-induced […] mouse liver assessed as reduction in hepatocyte collagen deposition by H and E staining based analysis; format: functional, cell-based
Mus musculus [28] = assay: Anti-NASH activity in GAN diet-induced […] mouse assessed as reduction of glycosyl-ceramide level in serum administered orally for 12 weeks; format: functional, organism-based; details: route po
Mus musculus [29] = assay: Anti-NASH activity in GAN diet-induced […] mouse assessed as reduction of dihydroceramide level in serum administered orally for 12 weeks; format: functional, organism-based; details: route po
Mus musculus [30] = species: Mus musculus; assay: Anti-NASH activity in GAN diet-induced […] mouse assessed as reduction in Plin2 mRNA expression level; format: functional, organism-based
Mus musculus [31] = assay: Anti-NASH activity in GAN-induced […] mouse assessed as increase in rectal temperature at 10 mg/kg; format: functional, organism-based
Mus musculus [32] = species: Mus musculus; assay: Anti-NASH activity in GAN diet-induced […] mouse assessed as upregulation CYP7A1 protein by Western blot analysis; format: functional, organism-based
Liver [33] = assay: Anti-NASH activity in GAN diet-induced […] mouse liver assessed as reduction in hepatocyte ballooning by Oil Red O staining based assay; format: functional, cell-based
Mus musculus [34] = species: Mus musculus; assay: Anti-NASH activity in GAN diet-induced […] mouse assessed as reduction in Col3a1 level; format: functional, organism-based
Mus musculus [35] = species: Mus musculus; assay: Anti-NASH activity in GAN diet-induced […] mouse assessed as suppression of O-sta expression; format: functional, organism-based
[36] = biological target: T1, Bile acid receptor (Mus musculus); assay: In vivo antagonist activity against FXR in microbeta depleted mouse assessed as reduction in taurocholic acid induced Shp mRNA expression in ileum at 10 mg/kg, po incubated for 2 to 48 hrs; format: functional, organism-based; details: time 2-48 hrs

## CCCC(=O)O[C@@H]1CC[C@]2(C)[C@H]3CC[C@@H]4[C@H]5[C@H](C(C)C)CC[C@]5(C(=O)NCC(=O)O)CC[C@@]4(C)[C@]3(C)CC[C@H]2C1(C)C
Mus musculus [1]
  Activity: Active
Mus musculus [2]
  Activity: Active
Liver [3]
  Activity: Active
Mus musculus [4]
  Activity: Active
Liver [5]
  Activity: Active
[6]
  IC50 at 24 h: > 100 µM
Mus musculus [7]
  Activity: Active
Mus musculus [8]
  Activity: Active
Mus musculus [9]
  Activity: Active
[10]
  Activity: Active
Mus musculus [11]
  Activity: Active
[12]
  Drug metabolism: Metabolite_Detected
[13]
  Activity: Active
[14]
  Drug uptake: Active
Mus musculus [15]
  Activity: Active
[16]
  Activity: Active
Mus musculus [17]
  Activity: Active
Mus musculus [18]
  Activity: Active
Mus musculus [19]
  Activity: Active
Mus musculus [20]
  Activity: Active
Mus musculus [21]
  Activity: Active
Mus musculus [22]
  Activity: Active
Mus musculus [23]
  Activity: Active
Mus musculus [24]
  Activity: Active
Mus musculus [25]
  Activity: Active
[26]
  Activity: Active
Liver [27]
  Activity: Active
Mus musculus [28]
  Activity: Active
Mus musculus [29]
  Activity: Active
Mus musculus [30]
  Activity: Active
Mus musculus [31]
  Activity: Active
Mus musculus [32]
  Activity: Active
Liver [33]
  Activity: Active
Mus musculus [34]
  Activity: Active
Mus musculus [35]
  Activity: Active
[36]
  Activity: Active
